# Source: patent publication US20050256092A1, “Antipsoriatic agent” (priority 2002, published 2005)
# Where two headings read alike, the source gives them in different places.
# What was measured:
# [1] = tested on: epidermis of hairless mice; assay: epidermis thickening in hairless mice, percutaneous administration; format: in vivo; settings: single percutaneous dose, compared with active vitamin D3
# Description: (§1) The effect of ED-71 administered percutaneously and orally was investigated using hairless mice.
# (§2) Percutaneous administration of a vitamin D3 derivative in hairless mice was reported to cause hyperplasia of the epidermis (British Journal of Dermatology 1995; 132; 841-852).
# [2] = tested on: epidermis of hairless mice; assay: epidermis thickening in hairless mice, oral administration; format: in vivo; settings: administered orally for 4 days, compared with active vitamin D3
# Description: as §1, §2
# [3] = tested on: adult-human-derived keratinocytes; assay: suppression of proliferation of cultured human keratinocytes ([3H]thymidine uptake); format: cell-based; settings: for IC50: [3H]thymidine uptake, cultured 3 days + 1 day, percentage of control, read-out: IC50 (mol/L) value, suppression of human keratinocyte proliferation
# Description: The effect of suppressing the proliferation of cultured human keratinocytes by 2β-(3-hydroxypropyloxy)-1α,25-dihydroxyvitamin D3 (hereinafter referred to as “ED-71”) was investigated.
# KGM-2 culture medium was added to each well of a 96-well plate (COSTAR 3595), and adult-human-derived keratinocytes (Clonetics) were seeded at a cell count of 1×10^3/well. Then, active vitamin D3 (1α,25-dihydroxyvitamin D3, produced by Solvay Pharmaceuticals) or ED-71 (produced by Chugai Seiyaku) was added to each well in a final concentration of 1×10^−10 mol/L, 1×10^−9 mol/L, 1×10^−8 mol/L, or 1×10^−7 mol/L. The cells were cultured in the KGM-2 culture medium at a cell concentration of 1×10^3/200 μl/well for 3 days at 37° C. in an atmosphere of 5% CO2 and 95% air. [^3H]thymidine was added in an amount of 7.4 kBq/well, and the cells were further cultured for 1 day. The culture medium was removed, and the cells were stripped off using 0.05% trypsin/EDTA (GIBCO BRL), and the amount of [^3H]thymidine taken up by the cells was measured with a liquid scintillation counter (1450 MICROBETA, Wallac). The cells cultured and treated in the same manner as described above, except for the addition of the active vitamin D3 or ED-71, were used as a control.
# In FIG. 1, the [^3H]thymidine uptake into the cells treated with each drug is expressed as a percentage of the [^3H]thymidine uptake into the control cells.
structure (smiles),measurement,setting,value
"C=C1/C(=C\C=C2/CCC[C@@]3(C)C2CC[C@@H]3[C@H](C)CCCC(C)(C)O)C[C@@H](O)[C@@H](OCCCO)[C@@H]1O (stereo partly drawn) [ED-71, 2β-(3-hydroxypropyloxy)-1α,25-dihydroxyvitamin D3]",thickening of the epidermis,[1],thickened the epidermis in a lower dose than the dose of active vitamin D3
same,thickening of the epidermis,[2],thickened the epidermis in a lower dose than the dose of active vitamin D3
same,"human keratinocyte proliferation suppressing activity, relative value with respect to active vitamin D3",[3]; (IC50 value of active vitamin D3)/(IC50 value of ED-71),≥ 305.23
same,IC50,"[3]; Homo sapiens, Keratinocyte",< 0.0001 µM
"C=C1/C(=C\C=C2/CCC[C@]3(C)[C@@H]([C@H](C)CCCC(C)(C)O)CC[C@@H]23)C[C@@H](O)C[C@@H]1O [active vitamin D3, 1α,25-dihydroxyvitamin D3, reference compound]",IC50,[3],0.0305 µM
